Results taken from ChEMBL document CHEMBL1201862, “PubChem BioAssay data set” (2004).
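Interpolation was linear, between the two tested concentrations surrounding the appropriate level; five concentrations were tested over 48 hours in 96-well plates. Abbreviation: GI50, concentration required for 50% inhibition of growth.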 Calls of active or inactive are those of the source. Cut-off read from the data, not from the text of the source: active = GI50 up to about 1.1 µM and inactive = higher.

Legend:
Assay in all cases: NCI-60 cell line screen, 48 h
KM12 = test system: KM12
SF-539 = test system: SF-539
SN12C = test system: SN12C
A498 = test system: A498
HOP-62 = test system: HOP-62
TK-10 = test system: TK-10
NCI-H226 = test system: NCI-H226
T47D = test system: T47D
UACC-62 = test system: UACC-62
NCI-H522 = test system: NCI-H522
NCI-H23 = test system: NCI-H23
SF-268 = test system: SF-268
RXF 393 = test system: RXF 393
MCF7 = test system: MCF7
ACHN = test system: ACHN
HCC 2998 = test system: HCC 2998
HCT-15 = test system: HCT-15
OVCAR-4 = test system: OVCAR-4
K562 = test system: K562
SNB-19 = test system: SNB-19

Row | SMILES | GI50 (KM12) | GI50 (SF-539) | GI50 (SN12C) | GI50 (A498) | GI50 (HOP-62) | GI50 (TK-10) | GI50 (NCI-H226) | GI50 (T47D) | GI50 (UACC-62) | GI50 (NCI-H522) | GI50 (NCI-H23) | GI50 (SF-268) | GI50 (RXF 393) | GI50 (MCF7) | GI50 (ACHN) | GI50 (HCC 2998) | GI50 (HCT-15) | GI50 (OVCAR-4) | GI50 (K562) | GI50 (SNB-19)
1 | CN(C)CCNc1ncnc2nc(-c3ccccc3)c(-c3ccccc3)nc12 | > 100 µM (inactive) | > 100 µM (inactive) | > 100 µM (inactive) | > 100 µM (inactive) | > 100 µM (inactive) | > 100 µM (inactive) | > 100 µM (inactive) | > 100 µM (inactive) | > 100 µM (inactive) | > 100 µM (inactive) | > 100 µM (inactive) | > 100 µM (inactive) | > 100 µM (inactive) | 57.5 µM (inactive) | – | – | – | – | – | –
2 | O=c1cc(NNc2cccc(F)c2)[nH]c(=O)[nH]1 | > 100 µM (inactive) | 38.9 µM (inactive) | > 100 µM (inactive) | > 100 µM (inactive) | > 100 µM (inactive) | 14.2 µM (inactive) | > 100 µM (inactive) | 14.9 µM (inactive) | 35 µM (inactive) | 18.3 µM (inactive) | > 100 µM (inactive) | > 100 µM (inactive) | 20.5 µM (inactive) | – | 35.6 µM (inactive) | 95.9 µM (inactive) | 16.9 µM | > 100 µM (inactive) | 27.3 µM (inactive) | > 100 µM (inactive)
3 | N#Cc1cc(C#N)c(Cl)nc1N | > 10 µM (inactive) | > 10 µM (inactive) | > 10 µM (inactive) | – | > 10 µM (inactive) | > 10 µM (inactive) | > 10 µM (inactive) | > 10 µM (inactive) | > 10 µM (inactive) | – | > 10 µM (inactive) | > 10 µM (inactive) | > 10 µM (inactive) | > 10 µM (inactive) | > 10 µM (inactive) | > 10 µM (inactive) | > 10 µM | > 10 µM (inactive) | 7.53 µM (inactive) | > 10 µM (inactive)
4 | Cc1cc2nc(N3C(=O)/C(=C/c4cccc([N+](=O)[O-])c4)N=C3c3ccccc3)sc2cc1C | 27.2 µM (inactive) | 39.4 µM (inactive) | 26.7 µM (inactive) | – | 35.7 µM (inactive) | 71.1 µM (inactive) | – | 27.1 µM (inactive) | 33.5 µM (inactive) | – | – | 25.9 µM (inactive) | 15.6 µM (inactive) | 16.1 µM (inactive) | 37 µM (inactive) | 21.4 µM (inactive) | 36.5 µM | 25.8 µM (inactive) | 30.1 µM (inactive) | 34.1 µM (inactive)
5 | S=C1N=C(Cl)/C(=C\c2ccco2)N1 | > 100 µM (inactive) | > 100 µM (inactive) | > 100 µM (inactive) | > 100 µM (inactive) | > 100 µM (inactive) | > 100 µM (inactive) | > 80.5 µM (inactive) | > 100 µM (inactive) | > 100 µM (inactive) | 33.7 µM (inactive) | > 100 µM (inactive) | > 100 µM (inactive) | > 100 µM (inactive) | > 100 µM (inactive) | > 100 µM (inactive) | – | > 100 µM | > 47.2 µM (inactive) | > 100 µM (inactive) | > 100 µM (inactive)
6 | NCCNS(=O)(=O)c1ccc(N)cc1 | > 100 µM (inactive) | 49.1 µM (inactive) | > 100 µM (inactive) | > 100 µM (inactive) | > 100 µM (inactive) | > 100 µM (inactive) | > 100 µM (inactive) | > 100 µM (inactive) | > 100 µM (inactive) | > 100 µM (inactive) | > 100 µM (inactive) | > 100 µM (inactive) | > 100 µM (inactive) | > 100 µM (inactive) | > 100 µM (inactive) | – | > 100 µM | > 100 µM (inactive) | > 100 µM (inactive) | > 100 µM (inactive)
7 | O=C(Oc1ccccc1)N1c2ccccc2[C@@]23O[C@]24CCC[C@H]3C#C/C=C\C#C[C@H]14 | 13.6 µM (inactive) | 20.4 µM (inactive) | 13.7 µM (inactive) | 14.3 µM (inactive) | 12.9 µM (inactive) | 19.9 µM (inactive) | 17.4 µM (inactive) | 6.5 µM (inactive) | 7.48 µM (inactive) | – | 11.1 µM (inactive) | 13.6 µM (inactive) | 10.1 µM (inactive) | 6.5 µM (inactive) | – | – | 13.2 µM | 6.85 µM (inactive) | 15.6 µM (inactive) | 15.7 µM (inactive)
8 | O=c1/c(=C/c2ccc([N+](=O)[O-])o2)sc2n1[C@@H](c1ccc(Cl)cc1)C=C(c1cc(F)c(Cl)cc1Cl)N=2 | 24.5 µM (inactive) | 22.4 µM (inactive) | 5.5 µM (inactive) | 30.7 µM (inactive) | 11.5 µM (inactive) | 16.1 µM (inactive) | 15.8 µM (inactive) | 19 µM (inactive) | 14.8 µM (inactive) | 18.3 µM (inactive) | 15.3 µM (inactive) | 13.8 µM (inactive) | 13.2 µM (inactive) | 13.3 µM (inactive) | 16.3 µM (inactive) | – | 8.18 µM | 16.6 µM (inactive) | 13.2 µM (inactive) | 15.9 µM (inactive)
9 | CN(C)c1ccc(C(C#N)N2CCCN(C(C#N)c3ccc(N(C)C)cc3)C2c2ccc(N(C)C)cc2)cc1 (stereo not drawn) | > 100 µM (inactive) | > 100 µM (inactive) | > 100 µM (inactive) | > 100 µM (inactive) | > 100 µM (inactive) | > 100 µM (inactive) | > 100 µM (inactive) | > 100 µM (inactive) | > 100 µM (inactive) | > 100 µM (inactive) | > 100 µM (inactive) | > 100 µM (inactive) | > 100 µM (inactive) | > 100 µM (inactive) | > 100 µM (inactive) | – | > 100 µM | > 100 µM (inactive) | > 100 µM (inactive) | > 100 µM (inactive)
10 | Cc1ccc(S(=O)(=O)OC2CN3CCC2CC3)cc1 (stereo not drawn) | > 100 µM (inactive) | > 100 µM (inactive) | > 100 µM (inactive) | > 100 µM (inactive) | > 100 µM (inactive) | > 100 µM (inactive) | > 100 µM (inactive) | > 100 µM (inactive) | > 100 µM (inactive) | > 100 µM (inactive) | > 100 µM (inactive) | > 100 µM (inactive) | > 100 µM (inactive) | > 100 µM (inactive) | > 100 µM (inactive) | – | > 100 µM | > 100 µM (inactive) | > 100 µM (inactive) | > 100 µM (inactive)
11 | O=C(Nc1nnc(-c2ccccc2)o1)C(SC(=S)N1CCOCC1)c1ccccc1 (stereo not drawn) | 34.3 µM (inactive) | 33.3 µM (inactive) | 12.6 µM (inactive) | 23.8 µM (inactive) | 24.1 µM (inactive) | 51.6 µM (inactive) | 34.4 µM (inactive) | 39.8 µM (inactive) | – | 23.2 µM (inactive) | 18.9 µM (inactive) | – | 41.9 µM (inactive) | 27.1 µM (inactive) | 20.9 µM (inactive) | – | 5.43 µM | 34 µM (inactive) | 19.5 µM (inactive) | 40.1 µM (inactive)
12 | CN(C)c1ccc(/N=N\c2cccc3ccoc23)cc1 | > 73.1 µM (inactive) | > 100 µM (inactive) | > 75 µM (inactive) | > 100 µM (inactive) | > 100 µM (inactive) | 56.5 µM (inactive) | > 74.6 µM (inactive) | 61.7 µM (inactive) | > 100 µM (inactive) | 35.4 µM (inactive) | > 68.7 µM (inactive) | > 100 µM (inactive) | > 80.9 µM (inactive) | – | > 100 µM (inactive) | 60.8 µM (inactive) | 45.2 µM | 29.4 µM (inactive) | 44.8 µM (inactive) | > 100 µM (inactive)
13 | O=c1[nH]c(=O)n(C2CC(O)C(CO)O2)cc1OCCc1ccccc1 (stereo not drawn) | > 100 µM (inactive) | – | > 100 µM (inactive) | – | > 100 µM (inactive) | > 100 µM (inactive) | > 100 µM (inactive) | > 100 µM (inactive) | > 100 µM (inactive) | > 100 µM (inactive) | > 100 µM (inactive) | > 100 µM (inactive) | > 100 µM (inactive) | > 100 µM (inactive) | > 100 µM (inactive) | – | > 100 µM | > 100 µM (inactive) | > 100 µM (inactive) | > 100 µM (inactive)
14 | CO/C(N)=C(C#N)/N=C/c1ccc2ccccc2c1 | 23.1 µM (inactive) | – | > 100 µM (inactive) | 33 µM (inactive) | 23.2 µM (inactive) | > 100 µM (inactive) | > 100 µM (inactive) | 8.73 µM (inactive) | 3.06 µM (inactive) | > 100 µM (inactive) | > 100 µM (inactive) | > 100 µM (inactive) | > 100 µM (inactive) | – | 15.9 µM (inactive) | – | – | – | 4.72 µM (inactive) | –
15 | CC(C)Oc1c(C2(c3ccccc3)SCCCS2)c(=O)c1=O | 50.2 µM (inactive) | > 100 µM (inactive) | > 100 µM (inactive) | > 100 µM (inactive) | > 100 µM (inactive) | > 100 µM (inactive) | > 100 µM (inactive) | > 100 µM (inactive) | > 100 µM (inactive) | 24.7 µM (inactive) | > 100 µM (inactive) | > 100 µM (inactive) | > 100 µM (inactive) | > 100 µM (inactive) | > 100 µM (inactive) | – | > 100 µM | > 100 µM (inactive) | – | > 100 µM (inactive)
16 | OCC(CCc1c[nH]c2ccccc12)c1c[nH]c2ccccc12 (stereo not drawn) | 15.9 µM (inactive) | 18.4 µM (inactive) | 17.5 µM (inactive) | 15.2 µM (inactive) | 20.5 µM (inactive) | 19.6 µM (inactive) | 18.1 µM (inactive) | 16 µM (inactive) | 14.1 µM (inactive) | 16 µM (inactive) | 15.6 µM (inactive) | 17.3 µM (inactive) | 15.3 µM (inactive) | 15.5 µM (inactive) | 17.9 µM (inactive) | – | 14.7 µM | 17.9 µM (inactive) | 18.2 µM (inactive) | 16.7 µM (inactive)
